Measurements as given in article PMC8472512, “Synthesis and Biochemical Evaluation of Baicalein Prodrugs” (Pharmaceutics, 2021).

What was measured:
[1] = Chemical stability in physiologically-relevant solutions; format: physicochemical; details: 37 °C; for remaining at 4 h, 10 μM: at 4 h vs time 0
Protocol: Stock solutions of the test compounds (baicalein, compounds 1–7) prepared in MeOH at 10 mM were diluted in 0.1 N HCl and 0.1 M potassium phosphate buffer (pH 6.5 and 7.4) in triplicate to a final concentration of 10 μM. The mixtures were then incubated at 37 °C in a shaking water bath. Samples taken at 0, 1, 2, 3 and 4 h were analyzed by Thermo UltiMate 3000 series HPLC system. Chromatographic separation was performed on an Agilent Eclipse Plus C18 column (100 × 4.6 mm, 3.5 µm) kept at 40 °C with isocratic elution at a flow rate of 0.6 mL/min using a mixture of 0.1 vol% TFA in deionized water and acetonitrile as the mobile phase. The detection wavelengths were 277 and 270 nm for baicalein and compounds 1–7, respectively. Peak areas of the analytes on the UV chromatograms were used to calculate % remaining values at each time points.
The stability of baicalein and of the synthesized carbamate prodrugs (1–7) was determined in solutions mimicking gastric (0.1 N HCl, pH ~ 1), intestinal (pH 6.5 phosphate buffer), and physiological (pH 7.4 phosphate buffer) conditions. […]. […] […]. The degradation of the carbamate prodrugs was accompanied by the formation of baicalein under all conditions in this study (data not shown). Although the exact reason for this pH-dependent stability remains unknown, it is plausible that the side chains of amino acids somehow affect the hydrolysis of the carbamate bond of the prodrugs.

[2] = logD7.4 by shake-flask method; format: physicochemical; details: 1-octanol / 0.1 M potassium phosphate buffer, 0.1 M phosphate buffer (pH 7.4), duplicate
Protocol: The assay was conducted as reported previously. Briefly, 100 µM test solutions were prepared by diluting 10 mM stock solutions of the test compounds (baicalein and compounds 1–7) in 0.1 M potassium phosphate buffer (pH 7.4) saturated with 1-octanol. Standard solutions were prepared by diluting each test solution with the same volume of DMSO in HPLC vials. Partition solutions were prepared by mixing each test solution and 1-octanol saturated with 0.1 M potassium phosphate buffer (pH 7.4) at three different volume ratios, namely 1:0.02, 1:0.2 and 1:2, in HPLC vials. The partition solutions were then vortexed for 1 h at 1500 rpm at rt. The standard solutions and the aqueous phase (bottom layer) of each partition solution were analyzed directly from the HPLC vials as described above in Chemical stability assay. The logD7.4 values were calculated by the following equation: logD7.4=log(2×As/Ap−1)·Vt/Vo where As and Ap are, respectively, the peak areas of the standard and the aqueous phase of the partition solutions and Vt and Vo the volumes of test solution and 1-octanol of the partition solutions.

[3] = Stability in mouse plasma; format: in vitro ADME; details: mouse, plasma
Protocol: Working solutions of the test compounds (baicalein, enalapril, and compounds 1–7) prepared in 50 vol% aqueous MeOH at 40 μM were diluted in mouse plasma in triplicate to a final concentration of 1 μM. The mixtures were then incubated at 37 °C in a shaking water bath. A 50 μL aliquot was removed at 0 and 60 min from each incubation mixture followed by immediate mixing with 150 μL ice-cold MeOH containing 1 μg/mL glipizide as the internal standard (IS). The resulting mixtures, following a 5-min vortexing and sonication, were then centrifuged at 3000 rpm for 30 min at 4 °C. The supernatant was analyzed by Agilent 6460 QQQ LC−MS/MS system in a positive multiple reaction monitoring (MRM) mode. Gradient elution was conducted on an Agilent Eclipse Plus C18 column (100 × 2.1 mm, 3.5 µm) at 40 °C with 0.1 vol% formic acid in deionized water and 0.1 vol% formic acid in acetonitrile running at 0.45 mL/min. MRM transitions of the analytes were set as follows: baicalein: m/z 271→123, enalapril: m/z 377→234, 1: m/z 428→271, 2: m/z 414→271, 3: m/z 428→271, 4: m/z 416→271, 5: m/z 462→271, 6: m/z 386→271, 7: m/z 372→271, and glipizide: m/z 446→321. The analytical data were analyzed using Agilent MassHunter Quantitative Analysis Software (version B.05.00). Peak area ratios of the analytes vs. IS on the MRM chromatograms were used to calculate % remaining at 60 min.

[4] = Metabolic stability in mouse liver S9 fractions; format: in vitro ADME; details: presence of the cofactor mixture (NADPH, UDPGA, PAPS, GSH), 37 °C, 60 min
Protocol: Working solutions of the test compounds (baicalein, 7-EC, and compounds 1–7) prepared in 50 vol% aqueous MeOH at 120 μM were added in triplicate to a 200 mM tris buffer (pH 7.4) containing mouse liver S9 fractions (1 mg protein/mL), alamethicin (25 μg/mL) and MgCl2 (2 mM). The final concentration of test compound was 3 μM. This mixture was pre-incubated at 37 °C in a shaking water bath for 5 min followed by addition of a cofactor mixture to following final concentrations: 1 mM NADPH, 0.5 mM UDPGA, 0.1 mM PAPS and 2.5 mM GSH. A 50 μL aliquot was taken at 0, 15, 30 and 60 min from each incubation mixture. These samples were then treated in the same way as described above in Mouse plasma stability assay. The supernatant was analyzed by Agilent 6530 Q−TOF LC−MS/MS system in a positive auto MS/MS scan mode. The liquid chromatography was conducted in the same condition as described above in mouse plasma stability assay. The analytical data were analyzed using Agilent MassHunter Quantitative Analysis Software (version B.05.00). MS chromatograms were extracted using calculated exact masses ([M+H]^+) for the analytes. Peak area ratios of the analytes vs. IS on the extracted MS chromatograms were used to calculate % remaining values at each time points.

Mouse pharmacokinetics = format: in vivo, male ICR mice; details: for AUC(0-t) / Cmax / Tmax / AUC(0-inf) / half-life: male, ICR, mouse
Protocol: Pharmacokinetic studies were conducted with male ICR mice (8 weeks old; 30–35 g body wt.) purchased from Koatech Company (Pyeongtaek, Korea), as reported previously. Intravenous dosing solutions were prepared in EtOH/20% aqueous HPβCD (10/90 vol%) at 2 and 3 mg/mL for baicalein and compound 2, respectively. Oral dosing solutions were prepared in EtOH/tween 80/20% aqueous HPβCD (10/10/80 vol%) at 1 and 1.5 mg/mL for baicalein and compound 2, respectively. Plasma sample analysis was performed as described above in mouse plasma stability assay.

in vitro = details: PAMPA
Protocol: The assay was conducted as reported previously [15]. The samples were analyzed as described below in mouse plasma stability assay.

[5] = iv, plasma analyte after single i.v. dose of baicalein 10 mg/kg, mice
[6] = iv, plasma analyte after single i.v. dose of compound 2 15 mg/kg, mice
[7] = po, plasma analyte after single p.o. dose of compound 2 50 mg/kg, mice

O=c1cc(-c2ccccc2)oc2cc(O)c(O)c(O)c12 [Baicalein, 5,6,7-trihydroxy-2-phenyl-4H-1-benzopyran-4-one]
half-life at 10 μM ([1]; 0.1 M potassium phosphate buffer, pH 6.5 buffer (0.1 M potassium phosphate)): > 4 h | remaining at 4 h, 10 μM ([1]; 0.1 M potassium phosphate buffer, pH 6.5 buffer): 101 ± 2.8% | half-life at 10 μM ([1]; 0.1 M potassium phosphate buffer, pH 7.4 buffer (0.1 M potassium phosphate)): > 4 h | remaining at 4 h, 10 μM ([1]; 0.1 M potassium phosphate buffer, pH 7.4 buffer): 65.8 ± 2.6% | half-life at 10 μM ([1]; pH 1, 0.1 N HCl, 10 μM): > 4 h | remaining at 4 h, 10 μM ([1]; pH 1, 0.1 N HCl): 104 ± 4.1% | logD [2]: 2.14 | remaining at 1 h, 1 μM [3]: > 85% | metabolism in mouse liver S9 fractions [4]: rapidly metabolized | time plasma analyte was above the quantitation limit (Mouse pharmacokinetics; after i.v. dose of compound 2 (approximately equimolar to 10 mg/kg baicalein), mice): 8 h | time plasma analyte was above the quantitation limit (Mouse pharmacokinetics; after p.o. administration of compound 2, mice): 8 h | time plasma analyte was above the quantitation limit (Mouse pharmacokinetics; after single i.v. dose of 10 mg/kg baicalein, mice): up to 15 min | time plasma analyte was above the quantitation limit (Mouse pharmacokinetics; after single p.o. dose of 10 mg/kg baicalein, mice, 24 h time course): below the quantitation limit | AUC(0-t) (Mouse pharmacokinetics; [5]): 1090 ± 640 ng·h/mL | Cmax (Mouse pharmacokinetics; [5]): 1470 ± 330 ng/mL | Tmax (Mouse pharmacokinetics; [5]): 0.1 h | AUC(0-inf) (Mouse pharmacokinetics; [6]): 4390 ± 1570 ng·h/mL | AUC(0-t) (Mouse pharmacokinetics; [6]): 4240 ± 1430 ng·h/mL | Cmax (Mouse pharmacokinetics; [6]): 4190 ± 450 ng/mL | Tmax (Mouse pharmacokinetics; [6]): 0.1 h | half-life (Mouse pharmacokinetics; [6]): 1.5 ± 0.3 h | AUC(0-inf) (Mouse pharmacokinetics; [7]): 540 ± 150 ng·h/mL | AUC(0-t) (Mouse pharmacokinetics; [7]): 450 ± 140 ng·h/mL | Cmax (Mouse pharmacokinetics; [7]): 230 ± 90 ng/mL | Tmax (Mouse pharmacokinetics; [7]): 0.3 ± 0.09 h | half-life (Mouse pharmacokinetics; [7]): 2.6 ± 1.5 h | Papp (in vitro): 5.75 ± 0.14 ×10⁻⁶ cm/s
